Data as given in US9452177B2, “Vitamin D compounds and methods for reducing ocular hypertension (OHT)” (Wisconsin Alumni Research Foundation, priority 2008, dated 2016).

Test system: genes known to be involved in the regulation of IOP
Experiment: Rat intestine and mouse calvarial cell microarrays (gene expression)
Description: Vitamin D-deficient rats were given one bolus intravenous dose of 730 ng of 1,25-(OH)2D3/kg of body weight in ethanol or ethanol vehicle (control). Rats were anesthetized with isofluorane and decapitated 1, 3, 6, 10 and 24 h after injection of the dose or vehicle. There were three rats in each group for each time point. Blood was collected at the same time for determination of changes in serum calcium concentration. For each rat, the first 15 cm of intestine (duodenum) was removed, slit longitudinally and scraped with a glass slide. The mucosa was placed in a vial with GTC extraction buffer supplemented with 2% of β-mercaptoethanol (PolyATtract System 1000, Promega Corp., Madison, Wis.), homogenized at high speed with PowerGen 700 (Fisher Scientific, Pittsburgh, Pa.), flash frozen in liquid N2 and stored at −80° C. Experiments were done in duplicate.
For each time point, Poly(A+) RNA was isolated from pooled homogenized mucosa of three 1,25-(OH)2D3 or three vehicle treated rats. The mRNA was isolated using the PolyATtract System 1000 (Promega Corp., Madison, Wis.). The mRNA was purified using an RNeasy kit (Qiagen, Chatsworth, Calif.). The quality, integrity and quantity of the Poly(A+) RNA were determined by agarose gel electrophoresis, UV absorption spectrophotometry and the use of Agilent Bioanalyser 2100 (Agilent Technologies, Palo Alto, Calif.).
Primary fetal mouse calvarial cells were isolated and cultured in αMEM containing 10% FBS as described [Shevde, 2002]. Cells were plated in the 2×6-well plates (5×10^5 cells/well) and cultured with medium changes performed on days 1 and 4. On day 4 cells on 1 plate were treated with 1,25(OH)2D3 (10 nM final concentration). Second plate was used as the control. After 24 h of incubation with 1,25(OH)2D3, cells were harvested and total RNA was isolated with Trizol reagent (Invitrogen Life Technologies, Carlsbad, Calif.). The mRNA was further purified using an RNeasy kit (Qiagen, Chatsworth, Calif.). The quality, integrity and quantity of the total RNA were assessed by agarose gel electrophoresis and UV absorption spectrophotometry. Experiments were done in triplicates. […]
The hybridization reaction and the automated hybridization procedure were performed by the Gene Expression Center at the Biotechnology Center at the University of Wisconsin-Madison as described (Kutuzova, 2004). Each probe was tested on an Affymetrix Test3 Array and the quality of the cDNA and cRNA was determined by a 3′/5′ ratio of housekeeping genes within the array (ubiquitin, rat glyceraldehyde 3-phosphate dehydrogenase, β-actin, and hexokinase). […] Expression data were analyzed using the Affymetrix Microarrray Suite software version 5.0 (MAS 5.0). […]

[1] = rat 730 ng/kg i.v., mouse calvarial cells 10 nM, 24 h

**Q.** Which results are given for `C=C1/C(=C\C=C2/CCC[C@]3(C)[C@@H]([C@H](C)CCCC(C)(C)O)CC[C@@H]23)C[C@@H](O)C[C@@H]1O` [1,25-(OH)2D3, 1α,25-dihydroxyvitamin D3]?
**A.** expression of vasoactive intestinal peptide, topoisomerase I, MMP2 (data not shown): decreased expression; expression of ACTG2, ATP1A1, AQP1, CEACAM, FN1, CD44 and TIMP3 [1]: Significantly down-regulated; expression of PTGER4, MMP3, MMP11 and MMP13 [1]: Significant increases; mRNA expression for carbonic anhydrase I (CAI), angiotensin I converting enzyme (ACE) and actin alpha (ACTA1) [1]: strong reductions
